Measurements from PubChem BioAssay (NCI).
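Method: 48-hour compound exposure of cells in 96-well plates, five concentrations, linear interpolation of endpoints. TGI marks complete inhibition of growth.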

Experiments:
Test in all cases: NCI anticancer screen, dose series, 48 h
[1] = tested on: A498 renal
[2] = tested on: A549 NSCLC
[3] = tested on: ACHN renal
[4] = tested on: BT-549 breast
[5] = tested on: CAKI-1 renal
[6] = tested on: CCRF-CEM leukemia
[7] = tested on: COLO 205 colon
[8] = tested on: DU-145 prostate
[9] = tested on: EKVX NSCLC
[10] = tested on: HCC-2998 colon
[11] = tested on: HCT-15 colon
[12] = tested on: HL-60(TB) leukemia
[13] = tested on: HOP-62 NSCLC
[14] = tested on: HOP-92 NSCLC
[15] = tested on: HS 578T breast
[16] = tested on: HT29 colon
[17] = tested on: IGROV1 ovarian
[18] = tested on: K-562 leukemia
[19] = tested on: KM12 colon
[20] = tested on: M14 melanoma
[21] = tested on: MALME-3M melanoma
[22] = tested on: MCF7 breast
[23] = tested on: MDA-MB-231 breast
[24] = tested on: MDA-MB-435
[25] = tested on: MDA-N
[26] = tested on: MOLT-4 leukemia
[27] = tested on: NCI-H226 lung
[28] = tested on: NCI-H23 lung
[29] = tested on: NCI-H460 lung
[30] = tested on: NCI-H522 lung
[31] = tested on: NCI/ADR-RES ovarian
[32] = tested on: OVCAR-3 ovarian
[33] = tested on: OVCAR-4 ovarian
[34] = tested on: OVCAR-5 ovarian
[35] = tested on: OVCAR-8 ovarian
[36] = tested on: PC-3 prostate
[37] = tested on: RXF 393 renal
[38] = tested on: SF-268 CNS
[39] = tested on: SF-295 CNS
[40] = tested on: SF-539 CNS
[41] = tested on: SK-MEL-2 melanoma
[42] = tested on: SK-MEL-28 melanoma
[43] = tested on: SK-MEL-5 melanoma
[44] = tested on: SK-OV-3 ovarian
[45] = tested on: SN12C renal
[46] = tested on: SNB-19 CNS
[47] = tested on: SR leukemia
[48] = tested on: SW-620 colon
[49] = tested on: T-47D breast
[50] = tested on: TK-10 renal
[51] = tested on: U251 CNS
[52] = tested on: UACC-257 melanoma
[53] = tested on: UACC-62 melanoma
[54] = tested on: UO-31 renal
[55] = tested on: 786-0 renal
[56] = tested on: HCT-116 colon
[57] = tested on: LOX IMVI melanoma
[58] = tested on: SNB-75 CNS

Cc1c(Cl)c(=O)oc2cc(OCC(=O)c3ccccc3)ccc12
TGI [1]: > 100 µM
TGI [2]: > 100 µM
TGI [3]: > 100 µM
TGI [4]: > 100 µM
TGI [5]: > 100 µM
TGI [6]: > 100 µM
TGI [7]: > 100 µM
TGI [8]: > 100 µM
TGI [9]: > 100 µM
TGI [10]: > 100 µM
TGI [11]: > 100 µM
TGI [12]: > 100 µM
TGI [13]: 67.8 µM
TGI [14]: > 100 µM
TGI [15]: > 100 µM
TGI [16]: > 100 µM
TGI [17]: > 100 µM
TGI [18]: > 100 µM
TGI [19]: > 100 µM
TGI [20]: > 100 µM
TGI [21]: > 100 µM
TGI [22]: > 100 µM
TGI [23]: 75.4 µM
TGI [24]: > 100 µM
TGI [25]: > 100 µM
TGI [26]: > 100 µM
TGI [27]: > 100 µM
TGI [28]: > 100 µM
TGI [29]: > 100 µM
TGI [30]: > 100 µM
TGI [31]: > 100 µM
TGI [32]: > 100 µM
TGI [33]: > 100 µM
TGI [34]: > 100 µM
TGI [35]: > 100 µM
TGI [36]: > 100 µM
TGI [37]: > 100 µM
TGI [38]: > 100 µM
TGI [39]: > 100 µM
TGI [40]: > 100 µM
TGI [41]: > 100 µM
TGI [42]: > 100 µM
TGI [43]: > 100 µM
TGI [44]: > 100 µM
TGI [45]: > 100 µM
TGI [46]: > 100 µM
TGI [47]: 10.7 µM
TGI [48]: > 100 µM
TGI [49]: > 100 µM
TGI [50]: > 100 µM
TGI [51]: > 100 µM
TGI [52]: > 100 µM
TGI [53]: > 100 µM
TGI [54]: > 100 µM

CC1N(O)C(c2ccccc2)C(c2ccccc2)=[N+]1[O-] (configuration not stated)
TGI [55]: > 100 µM
TGI [1]: > 100 µM
TGI [2]: > 100 µM
TGI [3]: > 100 µM
TGI [4]: > 100 µM
TGI [5]: > 100 µM
TGI [6]: > 100 µM
TGI [7]: > 100 µM
TGI [9]: > 100 µM
TGI [10]: > 100 µM
TGI [56]: > 100 µM
TGI [11]: > 100 µM
TGI [12]: > 100 µM
TGI [13]: > 100 µM
TGI [14]: > 100 µM
TGI [15]: > 100 µM
TGI [16]: > 100 µM
TGI [17]: > 100 µM
TGI [18]: > 100 µM
TGI [19]: > 100 µM
TGI [57]: > 100 µM
TGI [20]: > 100 µM
TGI [21]: > 100 µM
TGI [22]: > 100 µM
TGI [23]: > 100 µM
TGI [25]: > 100 µM
TGI [26]: > 100 µM
TGI [27]: > 100 µM
TGI [28]: > 100 µM
TGI [29]: > 100 µM
TGI [31]: > 100 µM
TGI [32]: > 100 µM
TGI [33]: > 100 µM
TGI [34]: > 100 µM
TGI [35]: > 100 µM
TGI [36]: > 100 µM
TGI [37]: > 100 µM
TGI [39]: > 100 µM
TGI [40]: > 100 µM
TGI [41]: > 100 µM
TGI [42]: > 100 µM
TGI [43]: > 100 µM
TGI [44]: > 100 µM
TGI [45]: > 100 µM
TGI [46]: > 100 µM
TGI [58]: > 100 µM
TGI [47]: > 100 µM
TGI [48]: > 100 µM
TGI [50]: > 100 µM
TGI [51]: > 100 µM
TGI [52]: > 100 µM
TGI [53]: > 100 µM
TGI [54]: > 100 µM
